The results in this text go back to patent US5332733A, “Heterocyclically substituted piperazinoakylbenzoxazine and piperazinoalkylbenzothiazine compounds, processes for preparing them, and medicaments containing them” (Kali-Chemie Pharma GmbH, priority 1990, dated 1994).

Like-named read-outs stand apart in the source and are kept apart here.

The test system of data set [1] is mice. The settings on record: mouse, in vivo, 1440 min. How it is done:
2. Determination of Minimum Toxic Dose
Maximum doses of 300 mg/kg of the test substance were administered orally to male mice weighing 20-25 g. The animals were observed carefully for 3 hours for toxicity symptoms. In addition, all symptoms and deaths were recorded over a period of 24 hours after administration. Associated symptoms were also observed and recorded. If death or severe toxic symptoms were observed, additional mice were administered increasingly lower doses. The lowest dose which produced death or severe toxic symptoms is given in the following Table B as the minimum toxic dose.

Data set [2] has as its target T1, histamine-(H1)-receptor (Cavia porcellus, UniProt P31389).
T1 construct: Segments of the ileum 1.5 cm long from Dunkin Hartley guinea pigs; from tissue; host or cells: isolated ileum of Dunkin Hartley guinea pigs
Put plainly: Histamine-(H1)-receptor antagonism in vitro, histamine-induced contractions of isolated ileum. The class given is cell-based, guinea pig (Dunkin Hartley). The settings on record: test substance 10^-6 mole/l, histamine 5 × 10^-6 mole/l. Here is the method: 3. Investigation of Anti-Histamine-(H1) Effect Based on Histamine-(H1)-Receptor Antagonism In Vitro
To investigate the histamine-(H1)-receptor antagonism of the test substances, the inhibiting effect of the substances on histamine-induced contractions of the smooth muscle was determined in vitro on the isolated organ. Isolated strips of organ from the ileum are suitable for this purpose. In an organ bath of physiological saline solution the smooth muscle strips react to the addition of histamine by contracting. […] The extent of regression of the contraction is an indication of the anti-histamine-(H1) activity of the compounds. The investigation was carried out analogously to the method originally described by Magnus (Pfluegers Arch. 102, 123 (1904)).
Procedure for determining the smooth muscle contraction inhibiting effect on isolated guinea pig ileum induced by a 5×10^-6 molar histamine concentration
Segments of the ileum 1.5 cm long from Dunkin Hartley guinea pigs having a body weight of 300 500 g were used for the test. Each strip was placed in an organ bath of 10 ml of physiological saline solution according to Krebs-Henseleit and attached to a conventional apparatus for isotonic measurement of changes in length of the ileum strips (automated Celaster measuring apparatus), so that the tissue was under 1 g of tension. The bath was kept at a pH of 7.4 and gassed with a mixture of 5% CO2 and 95% O2. After an equilibration phase, an isotonic contraction of the tissue was induced by adding histamine in a final concentration of 5×10^-6 mole/liter and washing it out again after a contact time of 30 seconds. Only tissues samples from which three reproducible contractions were obtained at 10 minute intervals were used in the subsequent test. The test substances were then added in a final concentration of 10^-6 mole/liter, and after 30 seconds contact time histamine was again added up to a concentration of 5×10^-6 mole/liter. The resulting contractions were measured over 30 seconds. The tissue was then washed several times over a period of 10 minutes. Histamine was then added again to stimulate a contraction. The resulting contractions were again measured over 30 seconds. The difference between the amplitude of the contraction obtained by histamine addition alone and the amplitude of the contraction obtained in the presence of the test substance was determined and expressed in terms of % inhibition.
The inhibiting effects on the contractions induced by histamine 30 seconds after administration of the test substance and on the contractions induced by the addition of histamine 10 minutes later are listed in the table.

Data set [3] concerns PAF-induced aggregation of rabbit blood platelets. Put plainly: Anti-PAF activity in vitro, PAF-induced platelet aggregation. It counts as cell-based, rabbit (New Zealand hybrids). The settings on record: Oryctolagus cuniculus, test substance 10^-5 mole/l, pH 7.4. From the text:
4. Determination of Anti-PAF Activity In Vitro
PAF (=Platelet Activating Factor) is a phospholipid mediator which has many effects. Activation of platelet aggregation induces protracted broncho-contraction and hyper-reactivity of the air paths.
In this test the effect of the test substances on platelet aggregation induced by adding PAF to a suspension of platelets obtained from rabbit blood is investigated using the method described by Mikashima et al. (Jap. J. Pharmacol. 44 (1987) 387-391).
A suspension of platelets obtained from rabbit blood containing 4×10^9 platelets/ml in a modified Tyrode buffer solution (=Tyrode solution with 1.3 mM/l CaCl2 and 2.5 g/l gelatine added) adjusted to pH 7.4 was used. Tyrode solution is an aqueous solution containing 136.9 mmoles NaCl, 2.68 mmoles KCl, 2.31 mmoles CaCl2, 1.0 mmole MgCl2, 11.9 mmoles NaHCO3, 1.45 mmoles NaH2 PO4 and 5.55 mmoles glucose per liter. The platelets were obtained from 10 ml blood samples from each of three rabbits (New Zealand hybrids, body weight 3-4 kg). For this the blood samples were treated with ethylenediamine tetraacetic acid and washed according to the method of Artley et al. (Brit. J. Hematol. 19 (1970), 7-17). A platelet-rich plasma was then initially separated by centrifuging (20 minutes at 400×g). The blood platelets were separated from the plasma by recentrifuging for 15 minutes at 1,400×g. The platelets remaining as sediment after centrifuging were resuspended in a Tyrode buffer solution (but without calcium). 0.4 mmole of lysine acetylsalicylate was then added, and after 15 minutes the platelets were sedimented again. The sediment was resuspended in the aforementioned modified Tyrode buffer solution, and the number of platelets in the resulting suspension was adjusted to the desired content.
A 40×10^-9 molar PAF solution was used as a reagent. This solution was made from a 1.8×10^-3 molar stock solution in chloroform. For this purpose a 10 μl sample of the stock solution was evaporated to dryness and redissolved in 180 μl of the modified Tyrode solution to which 0.25% of lipid-free bovine serum albumin had been added. From this 10^-5 molar working solutions were then prepared and stored frozen. Samples of these solutions were appropriately diluted for the tests.
To carry out the test 50 μl of the platelet suspension and 10 μl of a 40×10^-5 molar solution of the compound being investigated were added with stirring (1,000 rpm) to 330 μl of the modified Tyrode buffer solution in an aggregation tube provided with a small magnetic stirrer. This corresponds to a final test substance concentration of 10^-5 mole/l. After 90 seconds preincubation time, 10 μl of the PAF preparation were added. The aggregation occurring in the aggregation tubes was measured over 4-5 minutes with the aid of a computerized aggregometer.
The aggregation which occurred in test tubes containing only platelet suspension was evaluated as 0%, whereas the aggregation which occurred in test tubes containing platelet suspension and PAF preparation was evaluated as 100%. The aggregation which still occurred during the inhibition of the PAF induced platelet aggregation due to the addition of the test substances was measured, and the resulting aggregation inhibition was calculated therefrom in %.

The subject of data set [4] is passive cutaneous anaphylaxis (PCA). Put plainly: Inhibition of passive cutaneous anaphylaxis (PCA) in rats. The class given is in vivo, Sprague-Dawley rats. Conditions: Rattus norvegicus, 1 h, 2 × 10^-5 mole/kg per os, one hour before ovalbumin challenge. Here is the method: (§1) 1. Determining Inhibition of Passive Cutaneous Anaphylaxis (PCA) and Histamine-Induced Anaphylactoid Cutaneous Reaction
The PCA reaction is carried out following the methods described by Goose et al. (J. N. Immunology 16 (1969), 749) and by Martin et al. (Arch. Pharmacol. 316 (1981), 186).
The IgE-rich ovalbumin antiserum used in the test was obtained from immunized Brown-Norway rats. The were immunized with an intraperitoneal injection of a mixture of 100 μg of ovalbumin with a Bordetella pertussis suspension (Vaxicoq™, Manufactured by Institute Merieux, containing 5×10^9 organisms and 1.25 mg Al(OH)3). After 20 days the animals were re-immunized with a further intraperitoneal injection of a solution of 10 μg ovalbumin in 0.5 ml physiological saline solution. After a further four days the blood was removed from the animals and centrifuged. The resulting antiserum was stored at -20° C. until use.
(§2) The inhibition of the passive cutaneous anaphylaxis and of the anaphylactoid cutaneous reaction induced by histamine was determined as follows:
(§3) Sprague-Dawley rats having a body weight of 150-180 g were injected intradermally in one flank with 50 μl of a 1:75 dilution of the IgE-rich ovalbumin antiserum in physiological saline solution to passively sensitize them to ovalbumin.
(§4) 24 hours after sensitization a solution of 8.25 mg/kg of ovalbumin and 26.4 mg/kg of a blue dye (Evans's Blue) was administered to the rats intravenously according to Martin et al. to trigger passive cutaneous anaphylaxis.
(§5) On the day of the experiment the test substances were dissolved in distilled water which contained 1 vol. % dimethylformamide and 1 vol. % of Tween™ 20 (=polyoxyethylene (20) sorbitan monolaurate). One hour before administration of the ovalbumin challenge, each animal was orally administered 2×10^-5 mole/kg of test substance in 0.5 ml of solution. For comparison purposes a control group received only the solvent.
(§6) The edematous anaphylactic (PCA) and anaphylactoid (histamine-induced) reactions caused by the stimulation of the intravenous ovalbumin injection, which manifested themselves by edema formation, swelling and exudation of blue dye, were evaluated 30 minutes after their initiation by the intravenous ovalbumin injection. This was done by visually determining the extent to which the blue dye emerged at the sites of edema formation. The percentage inhibition of anaphylactic and anaphylactoid reactions induced by the test substances in comparison with the reactions of the control animals not treated with any test substance was determined using comparison scales.
(§7) The results obtained using compounds of formula I according to the foregoing test methods are shown in the following Table A. The example numbers given for the compounds of formula I relate to the subsequent preparative examples.

Data set [5] has as its system histamine-induced anaphylactoid cutaneous reaction. In words: Inhibition of histamine-induced anaphylactoid cutaneous reaction in rats. Conditions: Rattus norvegicus, 1 h, 2 × 10^-5 mole/kg per os, one hour before ovalbumin challenge. The class given is in vivo, Sprague-Dawley rats. How it is done:
as §1, §2, §3, §4
To determine the histamine-induced anaphylactoid skin reaction, the animals are injected intradermally in the flank opposite to the antiserum administration with 50 μl of a physiological saline solution containing 0.8 mg/ml histamine directly before the intravenous injection of the solution containing the ovalbumin and the blue dye.
as §5, §6, §7

Where [6] appears, read: 0.5 min, after 30 seconds, read-out: % inhibition of histamine-induced ileum contractions after 30 seconds.
Setting [7] is: 10 min, after 10 minutes (after washing), read-out: % inhibition of histamine-induced ileum contractions after 10 minutes.

T1 sequence (P31389 whole entry): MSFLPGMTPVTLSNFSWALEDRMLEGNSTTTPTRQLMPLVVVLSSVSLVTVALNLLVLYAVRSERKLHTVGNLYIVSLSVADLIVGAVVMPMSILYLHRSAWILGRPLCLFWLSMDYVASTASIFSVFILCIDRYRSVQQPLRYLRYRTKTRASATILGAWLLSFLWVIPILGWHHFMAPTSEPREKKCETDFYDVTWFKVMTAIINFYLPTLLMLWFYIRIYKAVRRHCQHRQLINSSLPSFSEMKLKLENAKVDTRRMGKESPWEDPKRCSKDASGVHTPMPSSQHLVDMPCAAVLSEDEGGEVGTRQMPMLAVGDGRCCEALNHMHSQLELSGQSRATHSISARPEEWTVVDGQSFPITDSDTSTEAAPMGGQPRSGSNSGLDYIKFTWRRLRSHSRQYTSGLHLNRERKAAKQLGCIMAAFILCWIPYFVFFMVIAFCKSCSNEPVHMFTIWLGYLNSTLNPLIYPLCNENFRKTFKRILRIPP

In the case of `Cc1ccnc(N2CCN(CCCCC3Sc4ccccc4NC3=S)CC2)c1` (stereo not shown) [Example 2, 2-{4-[4-(4-methylpyridin-2-yl)-piperazin-1-yl]butyl}-2H-1,4-benzothiazine-3(4H) -thione], the Minimum toxic dose in data set [1] was more than 300 mg/kg. In addition, the results for the inhibition at 1 µM in data set [2] (setting [6]) and in data set [2] (setting [7]) were 51% and 60%, respectively. The inhibition at 10 µM in data set [3] came to 60%.

`COc1cccc(N2CCN(CCCCC3Sc4ccccc4NC3=O)CC2)n1` (stereo not shown) [Example 16]: the inhibition in vivo at 20 µmol/kg was determined as 50% in data set [4] and 45% in data set [5]. Also, the Minimum toxic dose in data set [1] was determined as 300 mg/kg. For the same compound, the inhibition at 1 µM worked out at 30% in data set [2] (setting [6]) and 27% in data set [2] (setting [7]).

For the compound `Cc1ccnc(N2CCN(CCCC3Oc4ccc(C)cc4NC3=O)CC2)c1` (stereo not shown) [Example 22], the inhibition in vivo at 20 µmol/kg in data set [4] was 69%; in data set [5], 45%. The compound further had a Minimum toxic dose in data set [1] of 300 mg/kg. Also, the inhibition at 10 µM in data set [3] came out at 42%.
